# Test results from PubChem BioAssay AID1259408 (Genetic Toxicology Data Bank (GENE-TOX), 2018).
# Activity calls are given as the source filed them. How the calls were made is not given here.
# System: GENE-TOX genotoxicity assays, various organisms and cells
# Assay: GENE-TOX mutagenicity studies
# Settings: for call: Assay Type: In vivo carcinogenicity studies
# [1] = Species/Cell Type: Allium cepa, Assay Type: Chromosome aberrations, Assay Code: ALC+D, Dose Response: With dose response, Evaluation Type: Evaluation A (Pre-1980)
# [2] = Species/Cell Type: Drosophila melanogaster, Assay Type: Sex-linked recessive lethal gene mutation, Assay Code: SRLT, Evaluation Type: Evaluation A (Pre-1980)
# [3] = Species/Cell Type: Escherichia coli polA (W3119 vs P3478), Assay Type: Rec-assay, DNA effects (bacterial DNA repair), Assay Code: RE1T, Evaluation Type: Evaluation A (Pre-1980)
# [4] = Species/Cell Type: Human diploid fibroblasts, Assay Type: Unscheduled DNA synthesis (UDS) in vitro, DNA effects, Assay Code: UDH-, Evaluation Type: Evaluation A (Pre-1980)
# [5] = Species/Cell Type: Saccharomyces cerevisiae, Assay Type: Mitotic recombination or gene conversion, Assay Code: YEH-, Evaluation Type: Evaluation A (Pre-1980)
# [6] = Species/Cell Type: Salmonella typhimurium (one or more of the five standard strains: TA98, TA100, TA1535, TA1537, and TA1538), Assay Type: Histidine reverse gene mutation, Ames assay, Assay Code: SALT, Evaluation Type: Evaluation A (Pre-1980)
# [7] = Species/Cell Type: Escherichia coli polA (W3119 vs P3478), Assay Type: Rec-assay, DNA effects (bacterial DNA repair), Assay Code: RE1-, Evaluation Type: Evaluation A (Pre-1980)
# [8] = Species/Cell Type: Nonhuman, Assay Code: CCG+, Evaluation Type: Evaluation A (Pre-1980)
# [9] = Species/Cell Type: Syrian hamster embryo (SHE) cells, Assay Type: Cell transformation, clonal assay, Assay Code: CTC+, Evaluation Type: Evaluation A (Pre-1980)
# [10] = Species/Cell Type: Drosophila melanogaster, Assay Type: Sex-linked recessive lethal gene mutation, Assay Code: SRL+, Evaluation Type: Evaluation A (Pre-1980)
# [11] = Species/Cell Type: Escherichia coli WP2 UVRA, Assay Type: Tryptophan reverse gene mutation, Assay Code: WPU+D, Dose Response: With dose response, Evaluation Type: Evaluation A (Pre-1980)
# [12] = Species/Cell Type: Salmonella typhimurium (one or more of the five standard strains: TA98, TA100, TA1535, TA1537, and TA1538), Assay Type: Histidine reverse gene mutation, Ames assay, Assay Code: SAL+, Evaluation Type: Evaluation A (Pre-1980)
# [13] = Species/Cell Type: Chinese hamster lung (V79) cells, Assay Type: Forward gene mutation at the HPRT or ouabain locus, Assay Code: V79+, Evaluation Type: Evaluation A (Pre-1980)
structure (smiles),measurement,setting,value
CCOP(=S)(OCC)Oc1ccc([N+](=O)[O-])cc1,mutagenic call,[1],active; positive
same,mutagenic call,"Species/Cell Type: Bacillus subtilis (H17 vs M45), Assay Type: Rec-assay, spot test, DNA effects (bacterial DNA repair), Assay Code: REWT, Evaluation Type: Evaluation A (Pre-1980)",no conclusion
same,mutagenic call,[2],no conclusion
same,mutagenic call,"Species/Cell Type: Escherichia coli WP2 UVRA, Assay Type: Tryptophan reverse gene mutation, Assay Code: WPU-*, Activation: With metabolic activation, Evaluation Type: Evaluation A (Pre-1980)",inactive; negative
same,mutagenic call,[3],no conclusion
same,mutagenic call,[4],inactive; negative
same,mutagenic call,"Species/Cell Type: Human lymphocytes, Assay Type: Sister-chromatid exchange (SCE) in vitro, Assay Code: SCL+D, Dose Response: With dose response, Evaluation Type: Evaluation B (Post-1980)",active; positive
same,mutagenic call,"Species/Cell Type: Human, Assay Type: Sister-chromatid exchange (SCE) in vitro, Assay Code: SC1+D, Dose Response: With dose response, Evaluation Type: Evaluation B (Post-1980)",active; positive
same,mutagenic call,"Species/Cell Type: Nonhuman, Assay Type: Sister-chromatid exchange (SCE) in vitro, Assay Code: SC2+D, Dose Response: With dose response, Evaluation Type: Evaluation B (Post-1980)",active; positive
same,mutagenic call,[5],inactive; negative
same,mutagenic call,[6],no conclusion
c1ncc2[nH]cnc2n1,mutagenic call,[7],inactive; negative
CC(=O)[O-].CC(=O)[O-].[OH-].[OH-].[OH-].[OH-].[Pb+2].[Pb+2].[Pb+2],call,[8],active; positive
same,mutagenic call,"Species/Cell Type: Rodents, Sex: Male, Assay Type: Dominant lethal test, Assay Code: DLTT, Evaluation Type: Evaluation A (Pre-1980)",no conclusion
Oc1ccc2c(cc3ccc4cccc5ccc2c3c45)c1O,mutagenic call,"Species/Cell Type: Mouse prostate cells, Assay Type: Cell transformation, Assay Code: CTM+D, Dose Response: With dose response, Evaluation Type: Evaluation A (Pre-1980)",active; positive
same,mutagenic call,[9],active; positive
[Cl][Sb]([Cl])([Cl])([Cl])[Cl],mutagenic call,"Species/Cell Type: Bacillus subtilis (H17 vs M45), Assay Type: Rec-assay, spot test, DNA effects (bacterial DNA repair), Assay Code: REW+, Evaluation Type: Evaluation A (Pre-1980)",active; positive
CC(=O)c1cc([N+](=O)[O-])c[nH]1,mutagenic call,[6],no conclusion
Oc1cc(O)c2ccccc2c1,mutagenic call,"Species/Cell Type: Allium cepa, Assay Type: Chromosome aberrations, Assay Code: ALCT, Evaluation Type: Evaluation A (Pre-1980)",no conclusion
[Cl][Fe]([Cl])[Cl],mutagenic call,"Species/Cell Type: Bacillus subtilis (H17 vs M45), Assay Type: Rec-assay, spot test, DNA effects (bacterial DNA repair), Assay Code: REW-, Evaluation Type: Evaluation A (Pre-1980)",inactive; negative
CC[C@]1(O)C[C@@H]2CN(CCc3c([nH]c4ccccc34)[C@@](C(=O)OC)(c3cc4c(cc3OC)N(C)[C@H]3[C@@](O)(C(=O)OC)[C@H](OC(C)=O)[C@]5(CC)C=CCN6CC[C@]43[C@@H]65)C2)C1,mutagenic call,"Species/Cell Type: Mammalian polychromatic erythrocytes, Assay Type: Micronucleus test, chromosome aberrations, Assay Code: MNT+, Evaluation Type: Evaluation A (Pre-1980)",active; positive
same,mutagenic call,"Species/Cell Type: Mammalian polychromatic erythrocytes, Assay Type: Micronucleus test, chromosome aberrations, Assay Code: MNT+, Evaluation Type: Evaluation B (Post-1980)",active; positive
same,mutagenic call,"Species/Cell Type: Mouse, Sex: Male, Assay Type: Sperm morphology, Assay Code: SPI+, Evaluation Type: Evaluation A (Pre-1980)",active; positive
same,mutagenic call,"Species/Cell Type: Neurospora crassa, Assay Type: Aneuploidy, chromosome aberrations, Assay Code: NEN-, Evaluation Type: Evaluation A (Pre-1980)",inactive; negative
CC(C)=CC1C(C(=O)OCc2coc(Cc3ccccc3)c2)C1(C)C (stereo not drawn),mutagenic call,[4],inactive; negative
same,mutagenic call,[5],inactive; negative
CS(=O)(=O)OCCCOS(C)(=O)=O,mutagenic call,[10],active; positive
same,mutagenic call,"Species/Cell Type: Rat, Sex: Male, Assay Type: Sperm morphology, Assay Code: SPA+, Evaluation Type: Evaluation A (Pre-1980)",active; positive
CCCCBr,mutagenic call,[3],no conclusion
Cc1cc(=O)oc2cc(O)ccc12,mutagenic call,"Species/Cell Type: Allium cepa, Assay Type: Chromosome aberrations, Assay Code: ALC+, Evaluation Type: Evaluation A (Pre-1980)",active; positive
O=[N+]([O-])c1ccc(/C=N\O)o1,mutagenic call,"Species/Cell Type: Escherichia coli WP2, Assay Type: Tryptophan reverse gene mutation, Assay Code: WP2-, Evaluation Type: Evaluation A (Pre-1980)",inactive; negative
same,mutagenic call,[11],active; positive
same,mutagenic call,[12],active; positive
Cc1ccc(C2CO2)cc1 (stereo not drawn),mutagenic call,[11],active; positive
same,mutagenic call,"Species/Cell Type: Human lymphocytes, Assay Type: Sister-chromatid exchange (SCE) in vitro, Assay Code: SCL+, Evaluation Type: Evaluation B (Post-1980)",active; positive
same,mutagenic call,"Species/Cell Type: Human, Assay Type: Sister-chromatid exchange (SCE) in vitro, Assay Code: SC1+, Evaluation Type: Evaluation B (Post-1980)",active; positive
same,mutagenic call,[12],active; positive
CCOc1nc2c(c(=O)n(C)c(=O)n2C)n1C,mutagenic call,[1],active; positive
same,mutagenic call,"Species/Cell Type: Arabidopsis species, Assay Type: Gene mutation, Assay Code: ARM+, Evaluation Type: Evaluation A (Pre-1980)",active; positive
same,mutagenic call,"Species/Cell Type: Human lymphocytes or leukocytes, Assay Type: Chromosome aberrations in vitro, Assay Code: CY7+, Evaluation Type: Evaluation A (Pre-1980)",active; positive
same,mutagenic call,"Species/Cell Type: Nonhuman, Assay Type: Chromosome aberrations in vitro, Assay Code: CY&+, Evaluation Type: Evaluation A (Pre-1980)",active; positive
same,mutagenic call,"Species/Cell Type: Nonhuman, Assay Type: Sister-chromatid exchange (SCE) in vitro, Assay Code: SC2-, Evaluation Type: Evaluation B (Post-1980)",inactive; negative
same,mutagenic call,"Species/Cell Type: Nonhuman, Assay Type: Sister-chromatid exchange (SCE) in vitro, Assay Code: SC2T, Evaluation Type: Evaluation A (Pre-1980)",no conclusion
same,mutagenic call,"Species/Cell Type: Vicia faba, Assay Type: Chromosome aberrations, Assay Code: VIC+, Evaluation Type: Evaluation A (Pre-1980)",active; positive
c1ccc2c(c1)-c1cc3ccccc3cc1[C@H]1O[C@@H]21,mutagenic call,[13],active; positive
same,mutagenic call,[10],active; positive
same,mutagenic call,"Species/Cell Type: Human diploid fibroblasts, Assay Type: Unscheduled DNA synthesis (UDS) in vitro, DNA effects, Assay Code: UDH+D, Dose Response: With dose response, Evaluation Type: Evaluation A (Pre-1980)",active; positive
same,mutagenic call,"Species/Cell Type: Mouse prostate cells, Assay Type: Cell transformation, Assay Code: CTM+, Evaluation Type: Evaluation A (Pre-1980)",active; positive
same,call,"Species/Cell Type: Nonhuman, Assay Code: CCG+L, Evaluation Type: Evaluation A (Pre-1980)",active; positive
same,mutagenic call,"Species/Cell Type: Nonhuman, Assay Type: Sister-chromatid exchange (SCE) in vitro, Assay Code: SC2+, Evaluation Type: Evaluation B (Post-1980)",active; positive
same,mutagenic call,[12],active; positive
same,mutagenic call,[9],active; positive
c1cc2ccc3cc4c(c5ccc(c1)c2c35)[C@H]1O[C@H]1CC4,mutagenic call,[13],active; positive
same,mutagenic call,"Species/Cell Type: Mouse prostate cells, Assay Type: Cell transformation, Assay Code: CTM-, Evaluation Type: Evaluation A (Pre-1980)",inactive; negative
same,call,"Species/Cell Type: Nonhuman, Assay Code: CCGT, Evaluation Type: Evaluation A (Pre-1980)",no conclusion
same,mutagenic call,[12],active; positive
C[C@H]1CCCCN1N=O,call,[8],active; positive
O=C(O)C(c1ccc(Cl)cc1)c1ccc(Cl)cc1,mutagenic call,[10],active; positive
same,mutagenic call,"Species/Cell Type: Nonhuman, Assay Type: Chromosome aberrations in vitro, Assay Code: CY&-, Evaluation Type: Evaluation A (Pre-1980)",inactive; negative
same,mutagenic call,"Species/Cell Type: Salmonella typhimurium, Serratia marcesens, Assay Type: Forward and reverse gene mutation, host-mediated assay, Assay Code: HM2-, Evaluation Type: Evaluation A (Pre-1980)",inactive; negative
Cc1ccc2ccc3c(C)c4ccccc4c(C)c3c2c1,mutagenic call,"Species/Cell Type: Chinese hamster lung (V79) cells, Assay Type: Forward gene mutation at the HPRT or ouabain locus, Assay Code: V79-*, Activation: With metabolic activation, Evaluation Type: Evaluation A (Pre-1980)",inactive; negative
C=CC(O)c1ccc2c(c1)OCO2 (stereo not drawn),mutagenic call,[2],no conclusion
same,mutagenic call,[7],inactive; negative
same,mutagenic call,"Species/Cell Type: Human diploid fibroblasts, Assay Type: Unscheduled DNA synthesis (UDS) in vitro, DNA effects, Assay Code: UDH+, Evaluation Type: Evaluation A (Pre-1980)",active; positive
same,call,[8],active; positive
same,mutagenic call,"Species/Cell Type: Saccharomyces cerevisiae, Assay Type: Mitotic recombination or gene conversion, Assay Code: YEH+/-*, Activation: With metabolic activation, Evaluation Type: Evaluation A (Pre-1980)","inactive; positive without activation, negative with activation"
same,mutagenic call,"Species/Cell Type: Salmonella typhimurium (one or more of the five standard strains: TA98, TA100, TA1535, TA1537, and TA1538), Assay Type: Histidine reverse gene mutation, Ames assay, Assay Code: SAL-, Evaluation Type: Evaluation A (Pre-1980)",inactive; negative
Nc1nc(-c2cccc3ccccc23)cs1,mutagenic call,"Species/Cell Type: Salmonella typhimurium, Assay Type: Forward and reverse gene mutation, host-mediated assay, Assay Code: HMAT, Evaluation Type: Evaluation A (Pre-1980)",no conclusion
